Target: Acidic mammalian chitinase (Homo sapiens, UniProt Q9BZP6)
Assay: Inhibition of His-tagged recombinant human acidic mammalian chitinase expressed in Escherichia coli Rosetta-gami 2 (DE3) using 4MU-(GlcNAc)2 as substrate assessed as production of 4-methylumbelliferone measured every 5 mins by fluorescence assay

Chain of Acidic mammalian chitinase (Q9BZP6 whole entry): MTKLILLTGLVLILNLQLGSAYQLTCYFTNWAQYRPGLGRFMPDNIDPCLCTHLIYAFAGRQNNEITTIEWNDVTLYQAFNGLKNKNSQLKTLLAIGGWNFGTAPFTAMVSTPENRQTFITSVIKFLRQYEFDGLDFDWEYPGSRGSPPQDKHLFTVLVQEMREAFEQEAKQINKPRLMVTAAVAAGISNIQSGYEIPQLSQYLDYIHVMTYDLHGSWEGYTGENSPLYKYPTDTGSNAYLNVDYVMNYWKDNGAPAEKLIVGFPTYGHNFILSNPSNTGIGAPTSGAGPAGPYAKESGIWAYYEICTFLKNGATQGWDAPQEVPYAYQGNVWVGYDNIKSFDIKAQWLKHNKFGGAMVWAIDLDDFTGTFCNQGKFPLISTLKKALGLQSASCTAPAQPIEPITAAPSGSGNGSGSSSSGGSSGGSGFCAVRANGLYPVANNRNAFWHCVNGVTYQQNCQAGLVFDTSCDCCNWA

- IC50: 30 µM
SMILES: CN=C(S)NNC(=O)c1oc2nc(-c3ccccc3)cc(C)c2c1N
